The text below walks through data of patent US4097487A, “Pyrrolidinyl and piperidinyl benzamide derivatives” (Yamanouchi Pharmaceutical Co., Ltd., priority 1975, dated 1978).

Counter-ions that a name gives are not always drawn. Like-named read-outs stand apart in the source and are kept apart here. A value given as a limit tells only on which side of the number the result lay.

In series [1] the test system is apomorphine-induced stereotyped behavior. Description: Activity of reducing the apomorphine-induced stereotyped behavior (Experiment I). The format is in vivo, rat (male, Wistar). Particulars: sc, read-out: ED50, activity of reducing apomorphine-induced stereotyped behavior.
Series [2] concerns conditioned avoidance response. Description: Activity of reducing the conditioned avoidance response, shuttle box (Experiment II a). Particulars: sc, read-out: ED50, activity of reducing the conditioned avoidance response. The series is classed as in vivo, rat (male, Wister). As for the experimental part: (a) Activity of reducing the conditioned avoidance response:
By a shuttle box method using rats (male, Wister, about 300 g.), a test sample was administered subcutaneously to the rats, after 30 minutes, a conditioned stimulation (buzzer noise for at longest 5 seconds) was applied, and then the avoidance response was observed. Then, from the relation of the ratio of inhibition of avoidance response and the amount of the test sample used, ED50 was determined. In addition, the training of applying an electric stimulation (A.C. 40 volts) as an unconditioned stimulation from a grid on a floor for at longest 5 seconds was applied to rats at 20 times/day for 6 days and the rats showing the ratio of avoidance response of higher than 80% were used in the experiment.

Series [3] concerns methamphetamin-induced stereotyped behavior. The series can be described thus: Activity of reducing the methamphetamin-induced stereotyped behavior (Experiment II b). Particulars: sc, read-out: ED50, activity of reducing the methamphetamin-induced stereotyped behavior. The series is classed as in vivo, rat (male, Wister). As for the experimental part: (b). Activity of reducing the methamphetamin-induced stereotyped behavior:
A test sample was administered subcutaneously to the rats, after 30 minutes, 5 mg./kg. of methamphetamine was administered intraperitoneally, and then after 60 minutes and 90 minutes since then, the symptom of the methamphetamin-induced stereotyped behavior was observed. From the relation of the ratio of inhibition and the amount of the test sample used, ED50 was determined.

The nature of series [4]: Cataleptogenic activity (Experiment III a). The arrangement: species or system mouse (male, ICR). Particulars: in vivo, sc; mouse, 30 min, fore-limbs hung on horizontal rod for 30 second. Here is the method:
(a) Cataleptogenic activity:
By referring to the method by Curvoisier et al (Psychotropic drugs, 373(1957)), a test sample was subcutaneously administered to mice (male, ICR, 8 weeks age) and after 30 minutes since then, the both fore-limb was forcibly hung on a horizontal metallic rod of 2 mm. diameter placed at a height of 6 cm. and when the mouse was kept in that state for 30 second, the activity of the mouse was considered to be a positive cataleptogenic activity. From the relation of the ratio of inhibition and the amount of the test sample used, ED50 was determined.

A short description of series [5]: Acute toxicity, up-down method (Experiment III b). Particulars: in vivo, iv, mouse. As for the experimental part: A test sample was administered to mice (male, ICR, 8 week age) by an intravenous injection and then LD50 was determined by an up-down method.
The conditions of series [6]: according to the Dutch patent; cited from earlier work.
The mark [7] stands for this setting: rat, s.c., 30 min before 1.25 mg/Kg apomorphine i.v., observed after 5, 10, 20 min.
Setting [8] is: rat, s.c., 30 min before conditioned stimulation, shuttle box.
Where [9] appears, read: rat, s.c., 30 min before 5 mg./kg. methamphetamine i.p., observed after 60 and 90 min.

The ED50 is the dose that gives a 50% effect, or the effect in half of the subjects. One may read the LD50 as the dose at which mortality reaches 50%. Low values mean greater toxicity, high ones lower toxicity. For the compound `CN(C)CCCN1c2ccccc2Sc2ccc(Cl)cc21` [Chlorpromazine, reference compound], the ED50 is 2.5 mg/kg in series [1] (Rattus norvegicus), 0.8 mg/kg in series [2] (Rattus norvegicus) and 3 mg/kg in series [3] (Rattus norvegicus). The same compound returned an ED50 at 0.5 h in series [4] of 10 mg/kg. Moreover, the LD50 in series [5] was determined as 59 mg/kg.

In the case of `CCN(CC)CCNC(=O)c1cc(Cl)c(N)cc1OC` [Metoclopramide, reference compound], the ED50 in series [1] (setting [7]) was determined as 4.1 mg/kg.

Turning to `COc1cc(C(=O)NC2CCN(Cc3ccccc3)C2)cc(OC)c1OC` (stereo not drawn) [N-(1-benzyl-3-pyrrolidinyl)-3,4,5-trimethoxybenzamide, reference compound], the ED50 in series [1] (setting [7]) is more than 10 mg/kg.

For `COc1cc(N)c(Cl)cc1C(=O)NC1CCN(Cc2ccccc2)C1` (stereo not drawn) [N-(1-benzyl-3-pyrrolidinyl)-4-amino-5-chloro-2-methoxybenzamide], the ED50 in series [1] (setting [7]) turned out to be 0.22 mg/kg; in series [2] (setting [8]), 0.3 mg/kg; in series [3] (setting [9]), 0.72 mg/kg.

Regarding `COc1cc(N)c(Cl)cc1C(=O)NCC1CCC(C)N1Cc1ccccc1` (stereo not drawn) [N-(1-benzyl-5-methyl-2-pyrrolidinylmethyl)-4-amino-5-chloro-2-methoxybenzamide], the ED50 in series [1] (setting [7]) came to 0.18 mg/kg; in series [2] (setting [8]) it was 0.18 mg/kg; in series [3] (setting [9]), 1 mg/kg. In series [4], this compound yielded an ED50 at 0.5 h of 30 mg/kg. The compound also yielded an LD50 in series [5] of 49 mg/kg.

Turning to `CCS(=O)(=O)c1ccc(OC)c(C(=O)NCC2CCC(C)N2Cc2ccccc2)c1.Cl` (stereo not drawn) [N-(1-benzyl-5-methyl-2-pyrrolidinylmethyl)-5-ethylsulfonyl-2-methoxybenzamide hydrochloride], the ED50 in series [1] (setting [7]) turned out to be 0.3 mg/kg; in series [2] (setting [8]) it was 0.3 mg/kg; in series [3] (setting [9]), 1.8 mg/kg.

For the compound `COc1cc(N)c(Cl)cc1C(=O)NC1CCN(C2CCCCC2)C1` (stereo not drawn) [N-(1-cyclohexyl-3-pyrrolidinyl)-4-amino-5-chloro-2-methoxybenzamide, reference compound], the ED50 in series [1] (setting [7]) is 1.8 mg/kg. Moreover, the “antiemetic activity (in words)” value in series [6] is listed as “strongest antiemetic activity”.

Regarding `COc1cc(N)c(Cl)cc1C(=O)NC1CCN(Cc2ccc(Cl)cc2)C1` (stereo not drawn) [N-(1-p-chlorophenylmethyl-3-pyrrolidinyl)-4-amino-5-chloro-2-methoxybenzamide], the ED50 in series [1] (setting [7]) stood at 0.18 mg/kg; in series [2] (setting [8]), 0.1 mg/kg.

`CCN(CCNC(=O)c1cc(Cl)c(N)cc1OC)Cc1ccccc1` [N-[2-(N'-benzyl-N'-ethylamino)ethyl]-4-amino-5-chloro-2-methoxybenzamide]: the ED50 in series [1] (setting [7]) was 0.2 mg/kg; in series [2] (setting [8]) it was 0.1 mg/kg; in series [3] (setting [9]), 1.8 mg/kg.

Take `COc1cc(C(=O)NCCN(C)Cc2ccccc2)cc(OC)c1OC` [N-[2-(N'-benzyl-N'-methylamino)ethyl]-3,4,5-trimethoxybenzamide, reference compound]: the median effective dose (ED50) in series [1] (setting [7]) is more than 30 mg/kg.

On to `COc1cc(N)c(Cl)cc1C(=O)NCCN(C)Cc1ccccc1` [N-[2-(N'-benzyl-N'-methylamino)ethyl]-4-amino-5-chloro-2-methoxybenzamide], for which the ED50 in series [1] (setting [7]) was determined as 0.54 mg/kg; in series [2] (setting [8]) it was 0.2 mg/kg; in series [3] (setting [9]) it was 3 mg/kg. For the same compound, the ED50 at 0.5 h in series [4] is 60 mg/kg. The compound further gave an LD50 in series [5] of 48 mg/kg.

Turning to `CCN(CCNC(=O)c1cc(Cl)c(N)cc1OC)Cc1ccc(F)cc1` [N-[2-(N'-ethyl-N'-p-fluorophenylmethylamino)ethyl]-4-amino-5-chloro-2-methoxybenzamide], the ED50 in series [1] (setting [7]) worked out at 0.18 mg/kg.

As for `CCN(CCNC(=O)c1cc(Cl)c(N)cc1OC)Cc1cccc(Cl)c1` [N-[2-(N'-m-chlorophenylmethyl-N'-ethylamino)ethyl]-4-amino-5-chloro-2-methoxybenzamide], the ED50 was found to be 0.3 mg/kg in series [1] (setting [7]) and 1 mg/kg in series [3] (setting [9]).

For `CCN(CCNC(=O)c1cc(S(=O)(=O)CC)ccc1OC)Cc1ccc(Cl)cc1` [N-[2-(N'-p-chlorophenylmethyl-N'-ethylamino)ethyl]-3-ethylsulfonyl-6-methoxybenzamide hydrochloride], the ED50 in series [1] (setting [7]) turned out to be 0.47 mg/kg; in series [3] (setting [9]), 3 mg/kg.

For `CCN(CCNC(=O)c1cc(Cl)c(N)cc1OC)Cc1ccc(Cl)cc1` [N-[2-(N'-p-chlorophenylmethyl-N'-ethylamino)ethyl]-4-amino-5-chloro-2-methoxybenzamide], the ED50 in series [1] (setting [7]) stood at 0.18 mg/kg; in series [2] (setting [8]), 0.1 mg/kg; in series [3] (setting [9]), 1 mg/kg.

As to `CCN(CCNC(=O)c1cc(Cl)c(N)cc1OC)Cc1ccc(OC)cc1` [N-[2-(N'-p-methoxyphenylmethyl-N'-ethylamino)ethyl]-4-amino-5-chloro-2-methoxybenzamide], the ED50 in series [1] (setting [7]) was 0.3 mg/kg.

`CCN1CCCC1CNC(=O)c1cc(S(N)(=O)=O)ccc1OC` (stereo not drawn) [Sulpiride, reference compound]: the ED50 in series [1] (setting [7]) was more than 100 mg/kg.

Regarding `CCN1CCCC1CNC(=O)c1cc(S(=O)(=O)CC)ccc1OC` (stereo not drawn) [Sultopiride, reference compound], the ED50 in series [1] (setting [7]) was 18 mg/kg.
